Where two headings read alike, the source gives them in different places.
Legend:
[1] = system: stomach cancer cell line SNU638; test: SRB cell viability assay, stomach cancer cell line SNU638; type: cell-based; conditions: Homo sapiens, SNU-638; SNU638, 72 hours; read-out: Cell growth inhibition concentration (IC50)
Procedure: (§1) Regarding a lung cancer cell line A549 (Korean Cell line Bank), a colon cancer cell line HCT116 (ATCC), a stomach cancer cell line SNU638 (Korean Cell Line Bank), a liver cancer cell line SK-HEP-1 (Korean Cell line Bank), and a breast cancer cell line MDA-MB-231 (Korean Cell line Bank), a sulforhodamine B (SRB) assay which is a method of measuring cell viability was used for measuring apoptosis effects of Asperphenin.
(§2) In detail, 190 μl of a cell suspension at a concentration of 3.5×10^4 cells/ml was inoculated in each well of a 96-well microplate. 0.8 μM, 4 μM, 20 μM, or 100 μM of Asperphenin was added to the cell culture medium, and cultured at a temperature of 37° C. for 72 hours under the condition of 5% CO2. After incubation, 50 μl of 50% (v/v) trichloroacetic acid solution (Sigma Aldrich) was added to each well, and then, incubated at a temperature of 4° C. for 30 minutes, to thereby fix the cells thereto. The fixed cells were washed with water five times, and then, dried in the air.
(§3) Next, 80 μl of a 0.4% (w/v) SRB aqueous solution (Sigma Aldrich) containing 1% (v/v) acetic acid (DUKSAN) was added to each well, incubated at room temperature for 1 hour to stain cells therein, and the stained cells washed with water and dried. The cells were dissolved by adding 200 μl of 10 mM Tris (pH 10.0) (Sigma Aldrich) to each well, and then, the number of living cells was calculated by measuring the absorbance thereof at 515 nm. The concentration of the compound inhibiting cell growth to 50% based on the number of the living cells, i.e., 50% inhibition concentration (IC50) was calculated, and the results are shown in Table 3. Here, as a positive control, etoposide (Sigma Aldrich) was used.

[2] = system: colon cancer cell line HCT116; test: SRB cell viability assay, colon cancer cell line HCT116; type: cell-based; conditions: Homo sapiens, HCT-116
Procedure: as §1, §2, §3
From the colon cancer cell lines HCT116 (ATCC), HCT15 (Korean Cell Line Bank), LS174T (Korean Cell Line Bank), RKO(ATCC), and SW480(ATCC), cell growth inhibition concentrations (IC50, μM) were calculated as described in Example 2-1, and the results are shown in Table 4. Here, as a positive control, paclitaxel (Sigma Aldrich) was used.

[3] = system: liver cancer cell line SK-HEP-1; test: SRB cell viability assay, liver cancer cell line SK-HEP-1; type: cell-based; conditions: Homo sapiens, SK-HEP1; SK-HEP-1, 72 hours; read-out: Cell growth inhibition concentration (IC50)
Procedure: as §1, §2, §3

[4] = system: breast cancer cell line MDA-MB-231; test: SRB cell viability assay, breast cancer cell line MDA-MB-231; type: cell-based; conditions: Homo sapiens; MDA-MB-231, 72 hours; read-out: Cell growth inhibition concentration (IC50)
Procedure: as §1, §2, §3

RKO cells [5] = test: Annexin V-FITC/PI apoptosis measurement by flow cytometry; type: cell-based, human; conditions: 48 hours, 0.625-10 μM, FIG. 4
Procedure: The process of apoptosis in the cell line RKO by Asperphenin B was confirmed using a Annexin V-FITC apoptosis measuring kit (manufactured by D Pharmingen).
As described in Example 2-3, Asperphenin B at the concentration of 0.625 μM, 1.25 μM, 2.5 μM, 5 μM, or 10 μM was added to the RKO cells, cultured for 48 hours to obtain cells. 300 μl of 1× binding buffer was added to the obtained cells, and well mixed together. Then, 5 μl of Annexin V and 5 μl of PI were added to 100 μl of the cell mixture, and allowed to react at room temperature for 15 minutes in the shaded stated. 400 μl of 1× binding buffer was added to the reactants, a FACSCalibur flow cytometer (BD FACSCalibur, BD Biosciences) was used to analyze the cell apoptosis. Based on the flow cytometry results, ratios of cells that were not stained (i.e., living cells), cells stained with annexin V (i.e., cells apoptosized at the early state), cells stained with both PI and annexin V (i.e., cells apoptosized at the late state or cells necrotized), or cells stained with PI only (i.e., cells necrotized) were calculated. As a negative control, cells to which Asperphenin B was not added were used.

[6] = system: lung cancer cell line A549; test: SRB cell viability assay, lung cancer cell line A549; type: cell-based; conditions: Homo sapiens; A549, 72 hours; read-out: Cell growth inhibition concentration (IC50)
Procedure: as §1, §2, §3

RKO cells [7] = test: ROS production, DCFH-DA flow cytometry; type: cell-based, human; conditions: 24 hours
Procedure: In detail, as described in Example 2-3, Asperphenin B at the concentration of 2.5 μM, 5 μM, or 10 μM wad added to the RKO cells. Cells were collected after the RKO cells were cultured for 24 hours. In addition, a cell group in which 5 mM of N-acetylcysteine (NAC) (Sigma Aldrich), which is an antioxidant, was added to 5 μM and […] of Asperphenin B was prepared as a comparative group, whereas a cell group in which none of Asperphenin B and NAC was contained as a control.
Afterwards, 2′,7′-dichlorofluorescin diacetate (DCFH-DA) (Sigma Aldrich) having a final concentration of 20 μM was added to the cell culture medium, and then, cultured at a temperature of 37° C. for 30 minutes under the condition of 5% CO2. Cells attached to the cell medium and cells not attached to the cell medium were all collected, washed with cold PBS twice, and then, suspended again in 1 ml of PBS to measure intensity of 2′,7′-dichlorofluorescin (DCF) by using a BD FACSCalibur flow cytrometer (manufactured by BD Biosciences).

RKO cells [8] = test: Tumor xenograft mouse model, RKO human colon cancer cell line; type: in vivo; conditions: nude mouse; for Tumor growth inhibition ratio: 21 days
Procedure: The anticancer effect of […] was verified in a tumor xenograft mouse model to which human colon cancer cell line was transplanted. In detail, RKO cells were subcutaneously injected at a concentration of 3.5×10^6 cells/150 μl into the right side of a nude mouse (Central Lab. Aminol Inc., hairless and small mouse that was tymus free and had dried beard at birth). […] The tumor size was measured by using a digital caliper for 21 days at intervals of 3 to 4 days. Here, as a control, a nude mouse to which […] was not administered was used (n=5).

- IC50 [1]: 11.7 µM
- IC50 ([2]; HCT116, 72 hours, Table 3, read-out: Cell growth inhibition concentration (IC50)): 2.6 µM
- IC50 ([2]; HCT116, Table 4, read-out: Growth inhibition value of cancer cell (IC50)): 4.05 µM
- IC50 [3]: 3 µM
- IC50 [4]: 6 µM
- IC50 [6]: 41.8 µM
Structure (SMILES): CCCCCCCCC[C@@H](O)CC(=O)N[C@@H](CC(N)=O)C(=O)N[C@@H](CCC(N)=O)C(=O)N[C@H](CC(=O)c1cc(C)cc(O)c1C(=O)c1c(O)cccc1O)CC(C)C [Asperphenin B]
- Ratio of necrotic cells compared to control (RKO cells [5]): increased
- Ratios of cells of early apoptosis and cells of late apoptosis or necrosis compared to control (RKO cells [5]): increased
- Production of ROS relative to the control (RKO cells [7]): about 2.4 times
- Ratio of cells producing ROS (RKO cells [7]; 2.5 μM): 8.14%
- Ratio of cells producing ROS (RKO cells [7]; 5 μM): 13.86%
- Ratio of cells producing ROS (RKO cells [7]; 5 μM Asperphenin B + 5 mM NAC): 1.41%
- Ratio of cells producing ROS (RKO cells [7]; 10 μM): 14.26%
- Ratio of cells producing ROS (RKO cells [7]; 10 μM Asperphenin B + 5 mM NAC): 2.55%
- Tumor growth inhibition ratio (RKO cells [8]; 4 mg/kg intraperitoneally 3 times a week): 38.9%
- Inhibition of tumor growth (RKO cells [8]; 4 mg/kg or 8 mg/kg): observed in a compound concentration-dependent manner
- Tumor growth inhibition ratio (RKO cells [8]; 8 mg/kg intraperitoneally 3 times a week): 68.7%

From patent US10759831B2, “Peptide compound, production method therefor, and use thereof” (iNtRON Biotechnology, Inc., priority 2014, dated 2020)
